From article PMC10096391, “Discovery of N,4-Di(1H-pyrazol-4-yl)pyrimidin-2-amine-Derived CDK2 Inhibitors as Potential Anticancer Agents: Design, Synthesis, and Evaluation” (Molecules, 2023)

How the values were obtained:
[1] = system: OAW28 ovarian cancer cells; test: Cell viability assay (MTT/resazurin), OAW28; assay type: cell-based; conditions: Homo sapiens, OAW-28, read-out: Antiproliferative Activity, GI50
Source text: (§1) Cancer cell lines derived from leukemia (MV4-11 and U937), breast (MCF7 (Rb-positive) and MDA-MB-231(Rb-negative)), and ovarian (A2780, OVCAR5, OAW28, OV90, Cov318, and Cov504) cancers, and glioblastoma (U87, T98G and U251) were acquired from the cell bank at Drug Discovery and Development, University of South Australia, and cultured according to the American Type Culture Collection (ATCC) recommendation in Roswell Park Memorial Institute (RPMI)-1640, Dulbecco’s Modified Eagle’s Medium (DMEM), or Minimum Essential Media (MEM), with 10% fetal bovine serum (Sigma-Aldrich, Castle Hill, NSW, Australia) within a humidified incubator at 37 °C in the presence of 5% CO2.
(§2) The MTT (Life Technologies, Mulgrave, VIC, Australia) and resazurin (Sigma-Aldrich) assays were used to determine the antiproliferative activities of the compounds initially at 1 µM against the cancer cell lines stated above.

[2] = system: OVCAR5 ovarian cancer cells; test: Cell viability assay (MTT/resazurin), OVCAR5; assay type: cell-based; conditions: Homo sapiens, OVCAR-5, read-out: Antiproliferative Activity, GI50
Source text: as §1, §2

U937 leukemia cells = test: Cell viability assay (MTT/resazurin), U937; assay type: cell-based; conditions: Homo sapiens, U-937, read-out: Antiproliferative Activity, GI50
Source text: as §1, §2

[3] = system: OV90 ovarian cancer cells; test: Cell viability assay (MTT/resazurin), OV90; assay type: cell-based; conditions: Homo sapiens, OV-90, read-out: Antiproliferative Activity, GI50
Source text: as §1, §2

OV90 cells = test: Colony formation (crystal violet), OV90; assay type: cell-based; conditions: OV90, 10 days
Description: (§3) Briefly, ovarian cancer cells (i.e., A2780, OVCAR5, and OV90) seeded in six-well plates were adhered for 6 h and treated with 15. The medium that contained the compound was then changed every 72 h. Ten days after treatment, the cells were washed with PBS, fixed, and stained with crystal violet staining solution (0.05% crystal violet, 1% formaldehyde, 1% PBS, and 1% ethanol), and colonies were quantified using ImageJ software (National Institute of Health, Maryland, USA), with data presented as percentages of the control cells.

T98G glioblastoma cells = test: Cell viability assay (MTT/resazurin), T98G; assay type: cell-based; conditions: Homo sapiens, read-out: Antiproliferative Activity, GI50
Source text: as §1, §2

A2780 cells [4] = test: Annexin V/PI apoptosis assay, A2780; assay type: cell-based; conditions: 48 h
Description: Annexin V-fluorescein isothiocyanate (FITC) apoptosis detection kit I (consisting of a ten-time stock solution of binding buffer, FITC–annexin V, and PI staining solution) was used to determine the effect of the compounds on cancer cell survival as previously reported. Briefly, six-well plates (Sigma-Aldrich, NSW, Australia) were seeded with about 1–2 × 10^5 cells/well in 2 mL growth medium, incubated at 37 °C and 5% CO2 overnight, treated with various concentrations of the test compounds, and incubated for 48 h. The wells were collected by trypsinization, transferred into FACS tubes, washed twice with 1 × PBS, and centrifuged at 300× g for 5 min. The pellets were then suspended in 100 µL of 1 × binding buffer and incubated in the dark with 3 µL of PI and 3 µL of FITC-conjugated annexin V solutions for 15 min. Finally, 200 µL of binding buffer was added to each sample and analyzed by the CytoFLEX cytometer. The extent of apoptotic cell death was quantified as the sum of the percentages of early apoptotic cells (annexin V-positive and PI-negative) and late apoptotic cells (both annexin–V- and PI-positive) and presented graphically as a contour diagram relative to the untreated control.

[5] = system: Cov504 ovarian cancer cells; test: Cell viability assay (MTT/resazurin), Cov504; assay type: cell-based; conditions: read-out: Antiproliferative Activity, GI50
Source text: as §1, §2

CDK1/cyclin B (CDK1B) = CDK1/cyclin B (CDK1B) (Homo sapiens, UniProt P06493); test: ADP-Glo kinase assay, CDK1/cyclin B; assay type: biochemical; conditions: apparent Ki from IC50, ADP-Glo
Description: The luminescent ADP-Glo™ assay, which measures the amount of ADP formed in a kinase reaction as described previously, was used to determine the kinase inhibition profile of the compounds. […] Ki values were calculated from their corresponding IC50 values (the concentrations of inhibitors that inhibit the kinase activity by 50%) and the Michaelis–Menten constant (Km) of ATP for each kinase using the Cheng–Prusoff equation as previously stated. In brief, 1 μL of each concentration of the test compounds was added to the respective wells, and to it were added 1 μL of the kinases and their respective substrates, diluted to the desired concentration in kinase reaction buffer ([…] tris base pH 7.5, 20 mM MgCl2, 0.4 µM dithiothreitol, and 0.1 mg/mL bovine serum albumin), and the pH was adjusted by adding 1 μL of a two-fold diluted kinase reaction buffer. To initiate the kinase activity, 1 μL of ATP solution (the concentration varies depending on the type of kinase under investigation) was added to each well, and the mixture was incubated at room temperature (20 to 22 °C) for 30–60 min depending on the kinase being tested. The reaction was then halted, 5 μL of the ADP-Glo reagent was added to each well (removing any unreacted ATP), and it was incubated at room temperature for 40 min. Then, to each well, 10 μL of the kinase detection reagent containing luciferin was added, which was incubated once more at room temperature in the dark for 30 min and the luminescence was measured by an EnVision® multi-label plate reader with an integration time of 1.5 s per well. Positive controls (the wells without the inhibitor) and negative or blank controls (the wells without the inhibitor and the enzyme, but with 1 × kinase reaction buffer) were also determined in 2.5% DMSO.
The percentage of kinase inhibition was determined using the following equation: % Residual kinase activity=Luminescence in the presence of inhibitor−Luminescence of blank control/Luminescence in the absence of inhibitor−Luminescence of blank control×100%%kinase inhbition=100%−%Residual kinase activity
Km is defined as the concentration of ATP or the substrate required to produce 50% of the maximal reaction rate in the kinase reaction. Therefore, since we used the concentration of ATP and the substrate at their Km values, Ki simply equals IC50/2 assuming these inhibitors are ATP-competitive based on the Cheng–Prusoff equation: Ki = IC50/(1 + ([ATP]/Km(ATP))) where [ATP] is the ATP concentration used for the IC50 determination and Km(ATP) for each kinase was determined experimentally.

MCF7 breast cancer cells = test: Cell viability assay (MTT/resazurin), MCF7; assay type: cell-based; conditions: Homo sapiens, read-out: Antiproliferative Activity, GI50
Source text: as §1, §2

MV4-11 leukemia cells = test: Cell viability assay (MTT/resazurin), MV4-11; assay type: cell-based; conditions: Homo sapiens, read-out: Antiproliferative Activity, GI50
Source text: as §1, §2

A2780 cells [6] = test: Colony formation (crystal violet), A2780; assay type: cell-based; conditions: A2780, 10 days; 15 at 0.5 and 2 µM, CYC065 at 0.5 µM
Description: as §3

CDK1/cyclin B (CDK1B), sequence (P06493 whole entry): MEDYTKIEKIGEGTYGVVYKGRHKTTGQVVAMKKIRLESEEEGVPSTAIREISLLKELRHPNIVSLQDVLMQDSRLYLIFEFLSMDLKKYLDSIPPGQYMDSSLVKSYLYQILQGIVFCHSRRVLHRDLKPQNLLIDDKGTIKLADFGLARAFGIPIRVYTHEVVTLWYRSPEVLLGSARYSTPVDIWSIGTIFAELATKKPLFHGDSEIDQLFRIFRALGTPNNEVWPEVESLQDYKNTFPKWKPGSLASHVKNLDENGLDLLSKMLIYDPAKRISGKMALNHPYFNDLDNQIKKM
CDK1/cyclin B (CDK1B), sequence (P14635 whole entry partner): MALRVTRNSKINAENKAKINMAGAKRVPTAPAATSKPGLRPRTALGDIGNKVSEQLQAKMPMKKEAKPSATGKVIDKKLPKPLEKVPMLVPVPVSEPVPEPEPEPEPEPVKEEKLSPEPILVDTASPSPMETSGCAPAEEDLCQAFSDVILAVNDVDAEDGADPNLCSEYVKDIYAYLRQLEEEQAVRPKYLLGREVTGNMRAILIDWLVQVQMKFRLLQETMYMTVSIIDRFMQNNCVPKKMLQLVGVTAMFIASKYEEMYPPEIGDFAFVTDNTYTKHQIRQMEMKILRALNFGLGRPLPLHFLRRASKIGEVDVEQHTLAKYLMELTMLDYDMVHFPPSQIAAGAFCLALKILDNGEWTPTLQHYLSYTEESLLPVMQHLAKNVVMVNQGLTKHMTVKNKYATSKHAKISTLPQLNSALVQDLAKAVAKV

Cn1cc(-c2nc(Nc3cn[nH]c3)ncc2Cl)cn1 [Compound 15, 5-Chloro-4-(1-methyl-1H-pyrazol-4-yl)-N-(1H-pyrazol-4-yl)pyrimidin-2-amine] gave a GI50 [1] of 534 nM, a GI50 [2] of 150 nM and a GI50 (U937 leukemia cells) of 186 nM. For the same molecule, the GI50 [3] was 390 nM, the “effect on colony formation” value (OV90 cells; 0.5 µM) was “partial inhibition” and the “effect on colony formation” value (OV90 cells; 15 at 0.5 and 2 µM, CYC065 at 0.5 µM) was “inhibited”. For the same molecule, the GI50 (T98G glioblastoma cells) was 380 nM, the “apoptosis (annexin V positive, early + late)” value (A2780 cells [4]; A2780, 0.5 µM) was 47% and the “apoptosis (annexin V positive, early + late)” value (A2780 cells [4]; A2780, 2 µM) was 49%. The viability at 0.5 µM (A2780 cells [4]; Homo sapiens, A2780, 0.5 µM, read-out: Q1-LL, viable cells) was 52.7%, the viability at 2 µM (A2780 cells [4]; Homo sapiens, A2780, 2 µM, read-out: Q1-LL, viable cells) was 50.5% and the GI50 [5] was 540 nM. The Ki (CDK1/cyclin B (CDK1B)) was 25 nM, the GI50 (MCF7 breast cancer cells) was 342 nM and the GI50 (MV4-11 leukemia cells) was 127 nM. The “effect on colony formation” value (A2780 cells [6]) was “inhibited”.
